A short description of test [1]: Compound was tested for its inhibitory activity against venom NAD glycohydrolase. Also noted: species or system Bungarus fasciatus.
Test [2] in a line: Compound was tested for the inhibitor activity against NAD glycohydrolase. The arrangement: species or system Bungarus fasciatus.
Test [3] has as its target Poly(ADP-ribose) glycohydrolase (Bos taurus) (UniProt O02776). Nature of the test: Kid describes the approach of hyperbolic function to its new limiting value as [I] increases, for the 1/V vs [I] replot.
The target is the same in test [4]. Description: Kid describes the approach of hyperbolic function to its new limiting value as [I] increases, for the KM/V vs [I] replot.
The target is the same in test [5]. Description: Inhibitor dissociation constant for the 1/V vs [I] replot.
Test [6] has the same target. Nature of the test: Inhibitor dissociation constant was determined by the analysis of the slope versus [inhibitor] replot.e.K.

Chain of Poly(ADP-ribose) glycohydrolase (Bos taurus) (O02776 whole entry): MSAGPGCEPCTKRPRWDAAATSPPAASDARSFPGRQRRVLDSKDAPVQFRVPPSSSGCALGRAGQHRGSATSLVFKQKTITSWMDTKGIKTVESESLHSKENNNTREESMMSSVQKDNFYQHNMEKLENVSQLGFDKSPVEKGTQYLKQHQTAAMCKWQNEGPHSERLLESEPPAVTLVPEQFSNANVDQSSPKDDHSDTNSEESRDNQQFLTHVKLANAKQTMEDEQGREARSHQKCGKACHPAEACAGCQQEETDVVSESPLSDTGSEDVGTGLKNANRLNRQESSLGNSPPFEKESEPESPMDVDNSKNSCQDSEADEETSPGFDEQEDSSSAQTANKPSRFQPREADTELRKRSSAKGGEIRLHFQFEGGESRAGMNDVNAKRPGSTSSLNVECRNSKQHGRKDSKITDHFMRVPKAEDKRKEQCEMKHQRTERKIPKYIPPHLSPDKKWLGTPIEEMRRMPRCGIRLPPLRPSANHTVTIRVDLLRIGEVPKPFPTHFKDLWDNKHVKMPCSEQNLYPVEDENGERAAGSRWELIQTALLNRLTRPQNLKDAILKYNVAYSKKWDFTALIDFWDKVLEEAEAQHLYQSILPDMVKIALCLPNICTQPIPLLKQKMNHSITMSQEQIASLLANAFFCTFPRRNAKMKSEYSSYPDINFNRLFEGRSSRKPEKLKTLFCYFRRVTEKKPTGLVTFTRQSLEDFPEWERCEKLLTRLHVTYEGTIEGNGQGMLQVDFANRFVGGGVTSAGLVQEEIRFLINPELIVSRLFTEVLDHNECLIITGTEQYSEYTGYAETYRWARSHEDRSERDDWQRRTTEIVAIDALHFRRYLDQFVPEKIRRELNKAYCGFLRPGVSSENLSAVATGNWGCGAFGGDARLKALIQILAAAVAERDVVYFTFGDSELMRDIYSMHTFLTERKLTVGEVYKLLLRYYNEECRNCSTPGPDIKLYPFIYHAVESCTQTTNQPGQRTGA

In general, IC50 refers to the concentration that gives 50% inhibition. High values mean a need for much substance, low ones inhibition by little substance. One may read the Ki as the dissociation constant of the complex between target and ligand, obtained from inhibition or displacement. Read a low Ki as a stronger hold on the target. On to `Nc1ncnc2c1ncn2[C@@H]1O[C@H](COP(=O)(O)OP(=O)(O)OC[C@H]2NC[C@H](O)[C@@H]2O)[C@@H](O)[C@H]1O` [ADENOSINE DIPHOSPHATE (HYDROXYMETHYL)PYRROLIDINEDIOL], for which, in test [1], it took 260 µM to reach half-maximal inhibition (IC50). In test [2], the inhibition constant Ki amounted to 94 µM. For the same molecule, the Kid in test [3] was 0.21 µM; in test [4], 0.26 µM. Also, the values for the Kin in test [5] and in test [6] were 0.052 µM and 0.08 µM, respectively.
